US20040166509A1, “Detecting hormonally active compounds” (priority 2002, published 2004)
Blank lines part the entries; values can stand above or below the compound they belong to.

Legend:
[1] = tested on: hepatic mRNA of adult male SHMs; assay: SHM cDNA macroarray (30 genes): hepatic gene expression profiles of exposed fish; format: in vivo, sheepshead minnow (SHM)
hepatic RNA of LMB = assay: LMB gene array (132 genes): hepatic gene expression after IP injection; format: in vivo, largemouth bass (LMB); conditions: two-fold cutoff vs control; for LMB83 vitellogenin-2 (Vtg 2) expression / LMB87 vitellogenin-1 (Vtg 1) expression / LMB97 choriogenin-3 expression / LMB108-1 choriogenin-2 expression / LMB47-2 (clone 47-2) expression: male LMB liver; for LMB83 vitellogenin-2 (Vtg 2) expression / LMB87 vitellogenin-1 (Vtg 1) expression / LMB97 choriogenin-3 expression / LMB108-1 choriogenin-2 expression: 48 h after single IP dose: E2 2.5 mg/kg, 4-NP 50 mg/kg or p,p′-DDE 100 mg/kg
[2] = tested on: estrogen receptors alpha, beta, and gamma, and Vtg 1 mRNA; assay: Real-time PCR of ER and Vtg 1 mRNA in LMB liver; format: in vivo, largemouth bass (LMB); conditions: male LMB liver, 48 h after IP 4-NP 50 mg/kg + ICI 182,780 1.0 mg/kg
Description: Experimental Design and Sample Collection: Adult male LMB were purchased from American Sports Fish Hatchery (Montgomery, Ala.) and maintained in fiberglass tanks as previously described (Larkin et al., Comp. Biochem. Physiol. B. Biochem. Mol. Biol. 133:543-557, 2002; Larkin et al., Marine Environ. Res. 54:395-399, 2002; and Larkin et al., Comparative Biochemistry and Physiology 133:543-557, 2002). Array technology as a tool to monitor exposure of fish to xenoestrogens. Marine Environ. Res., 2002; Bowman et al., Mol. Cell. Endocrinol. 196:67-77, 2002). Each fish was injected IP with either 50 mg/kg 4-NP (Fluka, St. Louis, Mo. # 74430), the combination of 50 mg/kg 4-NP and 1.0 mg/kg ICI 182,780 (Tocris Cookson), or vehicle, which consisted of ethanol and DMSO (Sigma, St. Louis, Mo. #5879). Each dose was dissolved in 1 ml of ethanol and then diluted to the appropriate concentration with DMSO. The fish were euthanized by submersion in a water bath containing 50-100 ppm […] 48 hours post injection and sacrificed by a sharp blow to the head followed by cervical transaction. The livers were excised and immediately flash frozen in liquid nitrogen. The frozen tissues were stored at −80° C. until RNA was isolated.
RNA Isolation: Isolation of total RNA from liver tissue was performed with the RNA Stat-60 reagent (Tel-test). Briefly, 30 mg-50 mg of tissue stored in RNA later was homogenized in 0.9 mls STAT 60, choloroform was added, and the mixture was centrifuged at 12,000 g for 15 minutes at 4° C. The extraction process was repeated and the pooled RNA was added to 500 μl isopropanol and allowed to precipitate at −20° C. for at least one hour. Following centrifugation at 12,000 g for 50 minutes, the pellet was washed with 70% ethanol, air dried and resuspended in an appropriate volume (50 μl-120 μl of RNA secure. The samples were treated with RNA secure (Ambion, Austin Tex. #7010) to inactivate contaminating RNases. All isolated RNA was treated with DNase solution (Ambion, Austin, Tex. #1906) following the manufacture's protocol. For all RNA samples, the quantity and quality of total RNA was assessed by spectrophotometric readings at 260 nm and by electrophoresis through a 1% formaldahyde agarose gel stained with ethidium bromide.
Real-Time PCR: Real time PCR was performed using reagents and a 5700 thermocycler purchased from Applied Biosystems (ABI, Foster City, Calif.). The nucleotide sequences of the primers for the ER subtypes and Vtg 1 are as follows: 5′, […] (SEQ ID NO:563) AND 5′[…] (SEQ ID NO:564). Probes and primers for the ER subtypes and Vtg 1 are described in Bowman et al., Ecotoxicology 8:399-416, 1999; and Bowman et al., Mol. Cell Endocrinol. 196:67-77, 2002. Each real time PCR reaction consisted of 0.01-0.2 μg of reverse transcribed total RNA from liver tissue, 1× universal Taqman master mix (ABI, Foster City, Calif.), and primers and probes in a 25 μl reaction. […] Statistical differences between the treatments were determined by one way analysis of variance with Dunnets post-hoc analysis.
Measurement of ER and Vtg 1 mRNA by real-time PCR: Real-time PCR is a sensitive assay that can be used to quantitate expression levels of genes. Using this technology, assays were designed to quantitate the expression of 4 genes, estrogen receptors alpha, beta, and gamma, and Vtg 1 in LMB following exposure to 4-NP and 4-NP/ICI 182,780. […]

[3] = Estrogen receptor alpha (clone ID not given)
[4] = clone SHM2-1: vitellogenin alpha (2)
[5] = clone SHM72-3: Coagulation Factor XI
[6] = clone SHM76-2: Alphal-microglobulin/bikunin precursor (AMBP) protein
[7] = male SHM liver, EE2 24, 109 or 832 ng/L, 4 days
[8] = female LMB liver, 48 h after single IP p,p′-DDE 100 mg/kg
[9] = female LMB liver, 48 h after single IP p,p′-DDE 100 mg/kg, listed as p, p′-DDE

SMILES: COc1ccc(C(c2ccc(OC)cc2)C(Cl)(Cl)Cl)cc1 [MXC, methoxychlor]
Regulation [1, 3]: up-reg E2; EE2, | Regulation [1, 4]: up-reg E2; EE2, | Regulation ([1]; clone SHM11: Transferrin): dn-reg E2; EE2, | Regulation [1, 5]: up-reg E2; EE2, | Regulation [1, 6]: d-reg E2; EE2,

SMILES: CC/C(=C(/CC)c1ccc(O)cc1)c1ccc(O)cc1 [DES, diethylstilbestrol]
Regulation [1, 3]: up-reg E2; EE2, | Regulation [1, 4]: up-reg E2; EE2, | Regulation ([1]; clone SHM11: Transferrin): dn-reg E2; EE2, | Regulation [1, 5]: up-reg E2; EE2, | Regulation [1, 6]: d-reg E2; EE2,

SMILES: C#C[C@]1(O)CC[C@H]2[C@@H]3CCc4cc(O)ccc4[C@H]3CC[C@@]21C [EE2, 17α-ethynyl estradiol]
Regulation [1, 3]: up-reg E2; EE2, | Regulation [1, 4]: up-reg E2; EE2, | Regulation ([1]; clone SHM11: Transferrin): dn-reg E2; EE2, | Regulation [1, 5]: up-reg E2; EE2, | Regulation [1, 6]: d-reg E2; EE2, | ER α expression, EE2 dose response [1, 7]: increase in a concentration dependent manner | Vtg α expression, EE2 dose response [1, 7]: increase in a concentration dependent manner | Vtg β expression, EE2 dose response [1, 7]: increase in a concentration dependent manner | alpha-1-microglobulin/bikunin precursor protein expression, EE2 dose response [1, 7]: decrease in a dose-dependent manner | beta actin expression, EE2 dose response [1, 7]: decrease in a dose-dependent manner | choriogenin 2 expression, EE2 dose response [1, 7]: increase in a concentration dependent manner | choriogenin 3 expression, EE2 dose response [1, 7]: increase in a concentration dependent manner | clone ND107-B expression, EE2 dose response [1, 7]: increase in a concentration dependent manner | transferrin expression, EE2 dose response [1, 7]: decrease in a dose-dependent manner

SMILES: ClC(Cl)=C(c1ccc(Cl)cc1)c1ccc(Cl)cc1 [p,p′-DDE]
LMB5 vitellogenin-2A expression, female (hepatic RNA of LMB; [8]): NP; Dn-reg | LMB50-1 (clone 50-1) expression, female (hepatic RNA of LMB; [8]): Down reg NP; | LMB53-1 (clone 53-1) expression, female (hepatic RNA of LMB; [8]): Down-reg. E2; | LMB71-1 (clone 71-1) expression, female (hepatic RNA of LMB; [8]): down-reg | LMB83 vitellogenin-2 expression, female (hepatic RNA of LMB; [8]): dn-reg DDE(F) | LMB87 vitellogenin-1 expression, female (hepatic RNA of LMB; [8]): dn-reg DDE(F) | LMB94-1 transferrin expression, female (hepatic RNA of LMB; [8]): Down-reg. | LMB101-1 (clone 101-1) expression, female (hepatic RNA of LMB; [8]): Dn | LMB102-1 chemotaxin expression, female (hepatic RNA of LMB; [8]): down-reg | LMB107-1 (clone 107-1) expression, female (hepatic RNA of LMB; [8]): down-reg | LMB108-1 choriogenin-2 expression, female (hepatic RNA of LMB; [8]): DDE(M); Dn- | LMB112-1 cathepsin (Aspartic protease) expression, female (hepatic RNA of LMB; [8]): DHT; Dn-DDE (F) | LMB118-1 apolipoprotein precursor (clone 118-1) expression, female (hepatic RNA of LMB; [8]): down-reg | LMB120-1 hypothetical protein (clone 120-1) expression, female (hepatic RNA of LMB; [8]): donw-reg | LMB128-1 (clone 128-1) expression, female (hepatic RNA of LMB; [8]): down-reg | LMB141 vitellogenin-3 expression, female (hepatic RNA of LMB; [8]): dn DDE (F) | LMB150 androgen receptor expression, female (hepatic RNA of LMB; [8]): Dn-reg DDE(F) | four Vtg's expression, female (hepatic RNA of LMB; [8]): down-regulated | genes up-regulated in female fish (hepatic RNA of LMB; [8]): no genes were identified as up-regulated | LMB50-1 (clone 50-1) expression, female (hepatic RNA of LMB; [9]): down-regulated | LMB53-1 (clone 53-1) expression, female (hepatic RNA of LMB; [9]): down-regulated | LMB71-1 (clone 71-1) expression, female (hepatic RNA of LMB; [9]): down-regulated | LMB94-1 transferrin expression, female (hepatic RNA of LMB; [9]): down-regulated | LMB101-1 (clone 101-1) expression, female (hepatic RNA of LMB; [9]): down-regulated | LMB102-1 chemotaxin expression, female (hepatic RNA of LMB; [9]): down-regulated | LMB107-1 (clone 107-1) expression, female (hepatic RNA of LMB; [9]): down-regulated | LMB108-1 choriogenin-2 expression, female (hepatic RNA of LMB; [9]): down-regulated | LMB112-1 cathepsin (Aspartic protease) expression, female (hepatic RNA of LMB; [9]): down-regulated | LMB118-1 apolipoprotein precursor (clone 118-1) expression, female (hepatic RNA of LMB; [9]): down-regulated | LMB120-1 hypothetical protein (clone 120-1) expression, female (hepatic RNA of LMB; [9]): down-regulated | LMB128-1 (clone 128-1) expression, female (hepatic RNA of LMB; [9]): down-regulated | LMB150 androgen receptor expression, female (hepatic RNA of LMB; [9]): down-regulated | LMB83 vitellogenin-2 (Vtg 2) expression (hepatic RNA of LMB): up-reg E2; | LMB87 vitellogenin-1 (Vtg 1) expression (hepatic RNA of LMB): up-reg E2; | LMB97 choriogenin-3 expression (hepatic RNA of LMB): Up-reg E2; | LMB108-1 choriogenin-2 expression (hepatic RNA of LMB): Up-reg E2; NP; | LMB83 vitellogenin-2 (Vtg 2) expression (hepatic RNA of LMB; listed as p, p′-DDE): up-regulated | LMB87 vitellogenin-1 (Vtg 1) expression (hepatic RNA of LMB; listed as p, p′-DDE): up-regulated | LMB97 choriogenin-3 expression (hepatic RNA of LMB; listed as p, p′-DDE): up-regulated | LMB108-1 choriogenin-2 expression (hepatic RNA of LMB; listed as p, p′-DDE): up-regulated | LMB47-2 (clone 47-2) expression (hepatic RNA of LMB; 48 h after single IP p,p′-DDE 100 mg/kg): Down-reg | LMB47-2 (clone 47-2) expression (hepatic RNA of LMB; 48 h after single IP p,p′-DDE 100 mg/kg, listed as p, p′-DDE): down-regulated

repression of 4-NP induction of Vtg 1 mRNA by addition of ICI 182,780 [2]: not repressed
SMILES: C[C@]12CC[C@@H]3c4ccc(O)cc4C[C@@H](CCCCCCCCC[S+]([O-])CCCC(F)(F)C(F)(F)F)[C@H]3[C@@H]1CC[C@@H]2O (stereo partly shown) [ICI 182,780]
